PubChem BioAssay AID1963428 (Molecular Pharmacology Branch, DTP, NCI, 2024)

Test system: 171881-019-R-J1-PDC complex spheroid growth, % test/control
Assay: Anticancer human tumor 171881-019-R-J1-PDC patient-derived invasive breast carcinoma cell line growth inhibition [Asc]
Settings: for IC50: curve of first compound; for viability, T/C: stronger effect = lower value
Protocol: Multicellular complex tumor spheroid response to apoptosis pathway targeting inhibitors Alrizomadlin, Pelcitoclax, and Dasminapant in combination with a variety of drugs and investigational agents in selected tumor cell lines
The MDM2 inhibitor alrizomadlin, the Bcl-2/Bcl-xL inhibitor pelcitoclax, and the IAPs inhibitor dasminapant were evaluated both individually and in combination with standard of care and investigational anticancer small molecules within a complex spheroid model of solid tumors. . Complex spheroids include a stromal component modeled by human endothelial cells (HUVEC) and fibroblasts modeled by human mesenchymal stem cells (MSCs). The concentration ranges selected for each drug and investigational agent were based upon clinically achievable concentrations if the clinical Cmax of the agent was known.
Compounds. The drugs and investigational agents: alrizomadlin (APG-115; NSC831270), pelcitoclax (APG-1252; NSC835773), dasminapant (APG-1387;NSC834197), TAK-243 (NSC785004), copanlisib (NSC809693), olaparib (NSC753686), talazoparib (NSC767125), cobimetinib (NSC 768068), eltanexor (KPT-8602, NSC 794443), abemaciclib (NSC 768073), sotorasib (NSC818433), adagrasib (NSC 831453), MRTX-1133 (NSC 836407), Iadademestat (ORY1001, NSC 806812), and RMC-4630 (NSC839698), were obtained from the NCI Developmental Therapeutics Program Chemical Repository. The FDA-approved anticancer drug set is available from the Developmental Therapeutics Program at https://dtp.cancer.gov/organization/dscb/obtaining/available plates.htm. […] The stock solutions were prepared in dimethyl sulfoxide (DMSO, Sigma-Aldrich, St. Louis, MO, cat. D2650) at 800-fold the tested concentration and stored at -70 degrees C prior to their use. All drugs and investigational agents were tested over a range starting from a high concentration at or near the clinical Cmax and decreasing in half-log increments. If the clinical Cmax for an agent had not been determined, the highest concentration tested was 10 microM.
The patient-derived cancer (PDC) cell lines include five colon adenocarcinomas: 186277-243-T-J2-PDC, 616215-338-R-J1-PDC, 439559-082-T-J2-PDC, 463943-066-T-J2-PDC, and 519858-162-T-J1-PDC; three pancreatic carcinomas: 323965-272-R-J2-PDC, 521955-158-R6-J3-PDC, and 521955-158-R2-J5-PDC; two uterine sarcomas: 327498-152-R-J2-PDC and 993429-296-R-J1-PDC; two rhabdomyosarcomas: 755483-174-R-J1-PDC and 772245-204-R-J1-PDC; two soft tissue sarcomas: 126254-015-R-J1-PDC and 494315-158-R-J1-PDC; two malignant fibrous histiocytomas: 317291-083-R-J1-PDC and 596521-263-R-J1-PDC; two breast carcinomas: 171881-019-R-J1-PDC and 885512-296-R-J2-PDC; and one ovarian carcinoma: 6556581-035-R-J-PDC were obtained from the NCI PDMR, (https://pdmr.cancer.gov). The established cell lines HSSY-2 synovial sarcoma (RRID:CVCL 8719), SYO-1 synovial sarcoma (RRID:CVCL_7146), MPNST malignant peripheral neural sheath tumor were obtained from the Sloan Kettering Institute. The following established cell lines were purchased from the American Type Culture Collection (ATCC, Manassas, VA), Sor the received from the NCI repository:, PANC-1 pancreatic carcinoma (CRL-1469, RRID:CVCL_0480), OVCAR-5 ovarian carcinoma (RRID:CVCL_1628), OVCAR-8 ovarian carcinoma (RRID:CVCL_1629), , MCF-7 breast carcinoma (CRL-12584, RRID:CVCL_0031), MDA-MB-231 breast carcinoma (CRL-12532, RRID:CVCL_0062), NCI-H1876 small cell lung carcinoma (CRL-5902, RRID:CVCL_1503), NCI-H510A small cell lung carcinoma (HTB-184, RRID:CVCL_1565), NCI-H1417 (CRL-5869, RRID:CVCL_1469), and NCI-H196 small cell lung carcinoma (CRL-5823, RRID:CVCL_1509). Dr. Peter Houghton (Greehey Children's Cancer Research Institute, University of Texas Health Science Center, San Antonio, TX) provided Rh-18 rhabdomyosarcoma (RRID:CVCL_1659). Pooled donor human umbilical vein endothelial cells (HUVEC, Lonza, cat. CC-2519) and human mesenchymal stem cells (hMSC, Lonza, cat. PT-2501) were purchased from Lonza (Walkersville, MD).
Cell Culture. […]

[1] = second compound 0.03 µM, first compound 0.0316 µM
[2] = second compound 0.03 µM, first compound 0.1 µM
[3] = second compound 0.0949 µM, first compound 0.0316 µM
[4] = second compound 0.0949 µM, first compound 0.1 µM
[5] = second compound 0.3 µM, first compound 0.0316 µM
[6] = second compound 0.3 µM, first compound 0.1 µM
[7] = second compound 0.949 µM, first compound 0.0316 µM
[8] = second compound 0.949 µM, first compound 0.1 µM
[9] = second compound 3 µM, first compound 0.0316 µM
[10] = second compound 3 µM, first compound 0.1 µM
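Wherever viability, T/C is given: spheroids exposed to compounds for 7 days.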

Question: `Cn1ncnc1[C@H]1c2n[nH]c(=O)c3cc(F)cc(c23)N[C@@H]1c1ccc(F)cc1` + CCN1C(C(=O)NC23CCC(C(=O)O)(CC2)CC3)C(c2cccc(Cl)c2F)C2(C(=O)Nc3cc(Cl)ccc32)C12CCCCC2 was tested. Which IC50 (second compound 0.03 µM) did it give?
Answer: > 0.1 µM

Question: What about the IC50 (second compound 0.0949 µM) of the same molecule?
Answer: > 0.1 µM

Question: And the IC50 (second compound 0.3 µM)?
Answer: > 0.1 µM

Question: What about the IC50 (second compound 0.949 µM) of the same molecule?
Answer: > 0.1 µM

Question: What about the IC50 (second compound 3 µM) of the same molecule?
Answer: > 0.1 µM

Question: And the viability, T/C (second compound 0.03 µM, first compound 0.000316 µM)?
Answer: 93.2%

Question: What about the viability, T/C (second compound 0.03 µM, first compound 0.001 µM) of the same molecule?
Answer: 110%

Question: What about the viability, T/C (second compound 0.03 µM, first compound 0.00316 µM) of the same molecule?
Answer: 107%

Question: And the viability, T/C (second compound 0.03 µM, first compound 0.01 µM)?
Answer: 103%

Question: And the viability, T/C [1]?
Answer: 105%

Question: And the viability, T/C [2]?
Answer: 96.8%

Question: And the viability, T/C (second compound 0.0949 µM, first compound 0.000316 µM)?
Answer: 102%

Question: And the viability, T/C (second compound 0.0949 µM, first compound 0.001 µM)?
Answer: 95.5%

Question: And the viability, T/C (second compound 0.0949 µM, first compound 0.00316 µM)?
Answer: 95.8%

Question: What about the viability, T/C (second compound 0.0949 µM, first compound 0.01 µM) of the same molecule?
Answer: 111%

Question: And the viability, T/C [3]?
Answer: 104%

Question: And the viability, T/C [4]?
Answer: 114%

Question: And the viability, T/C (second compound 0.3 µM, first compound 0.000316 µM)?
Answer: 99.5%

Question: And the viability, T/C (second compound 0.3 µM, first compound 0.001 µM)?
Answer: 126%

Question: What about the viability, T/C (second compound 0.3 µM, first compound 0.00316 µM) of the same molecule?
Answer: 101%

Question: What about the viability, T/C (second compound 0.3 µM, first compound 0.01 µM) of the same molecule?
Answer: 104%

Question: And the viability, T/C [5]?
Answer: 109%

Question: What about the viability, T/C [6] of the same molecule?
Answer: 109%

Question: What about the viability, T/C (second compound 0.949 µM, first compound 0.000316 µM) of the same molecule?
Answer: 115%

Question: What about the viability, T/C (second compound 0.949 µM, first compound 0.001 µM) of the same molecule?
Answer: 115%

Question: What about the viability, T/C (second compound 0.949 µM, first compound 0.00316 µM) of the same molecule?
Answer: 120%

Question: What about the viability, T/C (second compound 0.949 µM, first compound 0.01 µM) of the same molecule?
Answer: 108%

Question: And the viability, T/C [7]?
Answer: 115%

Question: What about the viability, T/C [8] of the same molecule?
Answer: 120%

Question: And the viability, T/C (second compound 3 µM, first compound 0.000316 µM)?
Answer: 119%

Question: What about the viability, T/C (second compound 3 µM, first compound 0.001 µM) of the same molecule?
Answer: 111%

Question: What about the viability, T/C (second compound 3 µM, first compound 0.00316 µM) of the same molecule?
Answer: 115%

Question: And the viability, T/C (second compound 3 µM, first compound 0.01 µM)?
Answer: 110%

Question: What about the viability, T/C [9] of the same molecule?
Answer: 110%

Question: What about the viability, T/C [10] of the same molecule?
Answer: 114%

Question: With `O=C(c1cc(Cc2n[nH]c(=O)c3ccccc23)ccc1F)N1CCN(C(=O)C2CC2)CC1` + CCN1C(C(=O)NC23CCC(C(=O)O)(CC2)CC3)C(c2cccc(Cl)c2F)C2(C(=O)Nc3cc(Cl)ccc32)C12CCCCC2 as the molecule, how does the IC50 (second compound 0.03 µM) read?
Answer: > 10 µM

Question: And the IC50 (second compound 0.0949 µM)?
Answer: > 10 µM

Question: And the IC50 (second compound 0.3 µM)?
Answer: > 10 µM

Question: And the IC50 (second compound 0.949 µM)?
Answer: > 10 µM

Question: And the IC50 (second compound 3 µM)?
Answer: > 10 µM

Question: What about the viability, T/C [1] of the same molecule?
Answer: 123%

Question: What about the viability, T/C [2] of the same molecule?
Answer: 101%

Question: What about the viability, T/C (second compound 0.03 µM, first compound 0.316 µM) of the same molecule?
Answer: 102%

Question: And the viability, T/C (second compound 0.03 µM, first compound 1 µM)?
Answer: 105%

Question: What about the viability, T/C (second compound 0.03 µM, first compound 3.16 µM) of the same molecule?
Answer: 94.5%

Question: What about the viability, T/C (second compound 0.03 µM, first compound 10 µM) of the same molecule?
Answer: 103%

Question: And the viability, T/C [3]?
Answer: 113%

Question: And the viability, T/C [4]?
Answer: 92.5%

Question: And the viability, T/C (second compound 0.0949 µM, first compound 0.316 µM)?
Answer: 115%

Question: What about the viability, T/C (second compound 0.0949 µM, first compound 1 µM) of the same molecule?
Answer: 97.5%

Question: What about the viability, T/C (second compound 0.0949 µM, first compound 3.16 µM) of the same molecule?
Answer: 110%

Question: And the viability, T/C (second compound 0.0949 µM, first compound 10 µM)?
Answer: 113%

Question: What about the viability, T/C [5] of the same molecule?
Answer: 102%

Question: What about the viability, T/C [6] of the same molecule?
Answer: 116%

Question: And the viability, T/C (second compound 0.3 µM, first compound 0.316 µM)?
Answer: 117%

Question: And the viability, T/C (second compound 0.3 µM, first compound 1 µM)?
Answer: 95.1%

Question: What about the viability, T/C (second compound 0.3 µM, first compound 3.16 µM) of the same molecule?
Answer: 114%

Question: What about the viability, T/C (second compound 0.3 µM, first compound 10 µM) of the same molecule?
Answer: 107%

Question: And the viability, T/C [7]?
Answer: 110%

Question: What about the viability, T/C [8] of the same molecule?
Answer: 103%

Question: And the viability, T/C (second compound 0.949 µM, first compound 0.316 µM)?
Answer: 105%

Question: What about the viability, T/C (second compound 0.949 µM, first compound 1 µM) of the same molecule?
Answer: 102%

Question: What about the viability, T/C (second compound 0.949 µM, first compound 3.16 µM) of the same molecule?
Answer: 103%

Question: What about the viability, T/C (second compound 0.949 µM, first compound 10 µM) of the same molecule?
Answer: 108%

Question: And the viability, T/C [9]?
Answer: 108%

Question: And the viability, T/C [10]?
Answer: 121%

Question: And the viability, T/C (second compound 3 µM, first compound 0.316 µM)?
Answer: 101%

Question: What about the viability, T/C (second compound 3 µM, first compound 1 µM) of the same molecule?
Answer: 94.9%

Question: What about the viability, T/C (second compound 3 µM, first compound 3.16 µM) of the same molecule?
Answer: 113%

Question: And the viability, T/C (second compound 3 µM, first compound 10 µM)?
Answer: 106%
